Measurements reported in ChEMBL document CHEMBL5661943, “ASAP - In vitro antiviral effect” (2024).
“And” between values parts separate entries of the source, which are not always exact repeats. Equal entries are not always repeated.

Key:
Zika virus [1] = assay: Functional CPE-based assay to measure dose dependent changes in antiviral-drug inhibitory efficacy against Zika virus MR766 in Vero E6 miRFP670 cells. Cells are treated with antiviral candidates that are serially diluted. EC50 is reported via analysis of MTS assay as a readout of CPE. The assay has been performed by KU Leuven.; assay type: organism-based, Chlorocebus sabaeus, Vero C1008; conditions: Maximum response 100 %
Zika virus [2] = assay: Functional immunofluorescence assay to measure dose dependent changes in antiviral-drug inhibitory efficacy against Zika virus PRVABC59 in Vero E6/TMPRSS2 cells. Cells are treated with antiviral candidates that are serially diluted, following infection, cells are fixed. EC50 is reported via analysis of immunofluorescence staining. The assay has been performed by Icahn School of Medicine at Mount Sinai.; assay type: organism-based, Chlorocebus sabaeus
Zika virus [3] = assay: Functional CPE-based assay to measure dose dependent changes in antiviral-drug inhibitory efficacy against Zika virus MR766 in Vero E6 miRFP670 cells (cotreated with P-gp inhibitor, CP100356). Cells are treated with antiviral candidates that are serially diluted. EC50 is reported via analysis of MTS assay as a readout of CPE. The assay has been performed by KU Leuven.; assay type: organism-based, Chlorocebus sabaeus, Vero C1008; conditions: Baseline response 0 %, Maximum response 100 %, P-gp inhibitor CP100356
Zika virus [4] = assay: EC50 is reported via analysis of immunofluorescence staining. The assay has been performed by Icahn School of Medicine at Mount Sinai.; assay type: functional, organism-based, Chlorocebus sabaeus, VeroE6/TMPRSS2; conditions: Baseline response 0 %, P-gp concentration 2 uM, P-gp inhibitor Elacidar
dengue virus type 2 [5] = assay: Functional assay to measure dose dependent changes in antiviral-drug inhibitory efficacy against Dengue virus type 2 New Guinea C in Vero E6 miRFP670 cells (cotreated with P-gp inhibitor, CP100356). Cells are treated with antiviral candidates that are serially diluted, following infection, cells are fixed. EC50 is reported via analysis of fluorescence intensity using high-content imager. The …; assay type: organism-based, Chlorocebus sabaeus, Vero C1008; conditions: Baseline response 0 %, P-gp concentration 500 nM, P-gp inhibitor CP100356
dengue virus type 2 [6] = assay: Functional immunofluorescence assay to measure dose dependent changes in antiviral-drug inhibitory efficacy against Dengue virus type 2 Thailand/16681/84 in Vero E6/TMPRSS2 cells. Cells are treated with antiviral candidates that are serially diluted, following infection, cells are fixed. EC50 is reported via analysis of immunofluorescence staining. The assay has been performed by Icahn School of Medicine at Mount Sinai.; assay type: organism-based, Chlorocebus sabaeus
dengue virus type 2 [7] = assay: Functional immunofluorescence assay to measure dose dependent changes in antiviral-drug inhibitory efficacy against Dengue virus type 2 Thailand/16681/84 in Vero E6/TMPRSS2 cells (cotreated with P-gp inhibitor, Elacridar). Cells are treated with antiviral candidates that are serially diluted, following infection, cells are fixed. EC50 is reported via analysis of immunofluorescence staining. The assay has been performed by Icahn School of Medicine at Mount Sinai.; assay type: organism-based, Chlorocebus sabaeus, VeroE6/TMPRSS2

Which results are given for `C[C@@]1(O)[C@H](O)[C@@H](CO)O[C@H]1n1ccc2c(N)ncnc21` [BETA-2'-C-METHYL-7-DEAZA-ADENOSINE]?
EC90 (Zika virus [1]; Baseline response 0 %, EC90 CI (lower) 15.507 uM, EC90 CI (upper) 28.219 uM, Hill slope 1.884, Maximum measured 104.267 %, Minimum measured 0.699 %, R squared 0.993): 20.9 µM; EC90 (Zika virus [1]; Zika virus, Vero C1008, Baseline response 0 %, Hill slope 0.758, Maximum measured 14.246 %, Minimum measured -0.672 %, R squared 0.091): > 50 µM; EC90 (Zika virus [1]; Zika virus, Vero C1008, Baseline response 0 %, Hill slope 2.277, Maximum measured 74.443 %, Minimum measured -3.247 %, R squared 0.993): > 50 µM; EC90 (Zika virus [1]; Zika virus, Vero C1008, Baseline response 0 %, EC90 CI (lower) 6.665 uM, EC90 CI (upper) 20.693 uM, Hill slope 1.418, Maximum measured 92.41 %, Minimum measured 5.185 %, R squared 0.921): 11.7 µM; EC50 (Zika virus [2]; VeroE6/TMPRSS2): > 10 µM; EC90 (Zika virus [2]; VeroE6/TMPRSS2, Baseline response 0 %, Hill slope -0.033, Maximum measured 93.578 %, Maximum response 100 %, Minimum measured 41.57 %, R squared 0.011): > 10 µM; EC90 (Zika virus [3]; EC90 CI (lower) 1.33 uM, EC90 CI (upper) 21.491 uM, Hill slope 2.016, Maximum measured 119.759 %, Minimum measured 49.499 %, P-gp concentration 500 nM, R squared 0.708): 5.34 µM; EC90 (Zika virus [3]; EC90 CI (lower) 2.362 uM, EC90 CI (upper) 73.078 uM, Hill slope 2.992, Maximum measured 157.756 %, Minimum measured 1.417 %, P-gp concentration 500 nM, R squared 0.838): 13.1 µM; EC90 (Zika virus [3]; EC90 CI (lower) 3.073 uM, EC90 CI (upper) 52.816 uM, Hill slope 2.304, Maximum measured 128.398 %, Minimum measured 15.752 %, P-gp concentration 500 nM, R squared 0.861): 12.7 µM; EC90 (Zika virus [3]; EC90 CI (lower) 6.142 uM, EC90 CI (upper) 39.815 uM, Hill slope 2.116, Maximum measured 119.257 %, Minimum measured 3.222 %, P-gp concentration 500 nM, R squared 0.943): 15.6 µM; EC90 (Zika virus [3]; EC90 CI (lower) 6.409 uM, EC90 CI (upper) 24.739 uM, Hill slope 3.129, Maximum measured 131.405 %, Minimum measured -2.605 %, P-gp concentration 500 nM, R squared 0.913): 12.6 µM; EC90 (Zika virus [3]; EC90 CI (lower) 8.9 uM, EC90 CI (upper) 38.162 uM, Hill slope 2.016, Maximum measured 114.801 %, Minimum measured 5.397 %, P-gp concentration 500 nM, R squared 0.961): 18.4 µM; EC90 (Zika virus [3]; EC90 CI (lower) 10.323 uM, EC90 CI (upper) 42.716 uM, Hill slope 1.659, Maximum measured 113.143 %, Minimum measured 4.385 %, P-gp concentration 100 nM, R squared 0.967): 21 µM; EC90 (Zika virus [3]; EC90 CI (lower) 14.003 uM, EC90 CI (upper) 30.102 uM, Hill slope 3.316, Maximum measured 112.736 %, Minimum measured -6.737 %, P-gp concentration 500 nM, R squared 0.984): 20.5 µM; EC90 (Zika virus [3]; EC90 CI (lower) 17.062 uM, EC90 CI (upper) 43.343 uM, Hill slope 2.491, Maximum measured 123.53 %, Minimum measured -2.699 %, P-gp concentration 500 nM, R squared 0.955): 27.2 µM; EC90 (Zika virus [3]; EC90 CI (lower) 18.425 uM, EC90 CI (upper) 28.103 uM, Hill slope 2.492, Maximum measured 115.262 %, Minimum measured 4.379 %, P-gp concentration 500 nM, R squared 0.954): 22.8 µM; EC90 (Zika virus [3]; EC90 CI (lower) 23.748 uM, EC90 CI (upper) 39.727 uM, Hill slope 2.255, Maximum measured 100.144 %, Minimum measured -8.11 %, P-gp concentration 500 nM, R squared 0.982): 30.7 µM; EC90 (Zika virus [3]; EC90 CI (lower) 28.979 uM, EC90 CI (upper) 80.3 uM, Hill slope 3.379, Maximum measured 85.565 %, Minimum measured -8.762 %, P-gp concentration 500 nM, R squared 0.96): 48.2 µM; EC90 (Zika virus [3]; Hill slope 1.338, Maximum measured 86.023 %, Minimum measured -1.473 %, P-gp concentration 500 nM, R squared 0.993): > 50 µM; EC90 (Zika virus [4]; EC90 CI (lower) 0.301 uM, EC90 CI (upper) 7.202 uM, Hill slope -3.742, Maximum measured 131.957 %, Maximum response 100 %, Minimum measured 2.652 %, R squared 0.767): 4.77 µM; EC90 (Zika virus [4]; Hill slope -0.425, Maximum measured 98.697 %, Maximum response 100 %, Minimum measured 17.927 %, R squared 0.629): > 10 µM; EC90 (Zika virus [4]; Hill slope -1.446, Maximum measured 54.457 %, Maximum response 40 %, Minimum measured 5.333 %, R squared 0.69): > 10 µM; EC90 (Zika virus [4]; Hill slope -2.191, Maximum measured 87.134 %, Maximum response 60 %, Minimum measured 12.691 %, R squared 0.704): > 10 µM; EC90 (dengue virus type 2 [5]; EC90 CI (lower) 3.48 uM, EC90 CI (upper) 7.993 uM, Hill slope -1.843, Maximum measured 93.524 %, Maximum response 100 %, Minimum measured 0.518 %, R squared 0.959): 57.2 µM; EC90 (dengue virus type 2 [5]; EC90 CI (lower) 4.11 uM, EC90 CI (upper) 8.283 uM, Hill slope -1.641, Maximum measured 89.89 %, Maximum response 100 %, Minimum measured 0.257 %, R squared 0.971): 84.9 µM; EC90 (dengue virus type 2 [5]; EC90 CI (lower) 6.077 uM, EC90 CI (upper) 11.974 uM, Hill slope -2.703, Maximum measured 104.698 %, Maximum response 100 %, Minimum measured 1.385 %, R squared 0.989): 43.4 µM; EC90 (dengue virus type 2 [5]; EC90 CI (lower) 9.48 uM, EC90 CI (upper) 152.006 uM, Hill slope -3.766, Maximum measured 162.932 %, Maximum response 100 %, Minimum measured 1.715 %, R squared 0.543): 122 µM; EC90 (dengue virus type 2 [5]; EC90 CI (lower) 10.134 uM, EC90 CI (upper) 21.901 uM, Hill slope -2.086, Maximum measured 107.044 %, Maximum response 100 %, Minimum measured 0.795 %, R squared 0.961): 122 µM; EC90 (dengue virus type 2 [5]; EC90 CI (lower) 13.312 uM, EC90 CI (upper) 68.915 uM, Hill slope -3.556, Maximum measured 71.93 %, Maximum response 65.616 %, Minimum measured 1.236 %, R squared 0.774): 104 µM; EC90 (dengue virus type 2 [5]; EC90 CI (lower) 21.742 uM, EC90 CI (upper) 34.481 uM, Hill slope -3.397, Maximum measured 108.212 %, Maximum response 100 %, Minimum measured 0.235 %, R squared 0.983): 99.8 µM; EC50 (dengue virus type 2 [6]; VeroE6/TMPRSS2): 0.045 µM; EC90 (dengue virus type 2 [6]; VeroE6/TMPRSS2, Baseline response 43.084 %, EC90 CI (lower) 0 uM, EC90 CI (upper) 0 uM, Hill slope -11.259, Maximum measured 119.711 %, Maximum response 115.226 %, Minimum measured 27.831 %, R squared 0.402): 0.055 µM; EC90 (dengue virus type 2 [7]; Baseline response 0 %, Hill slope -0.711, Maximum measured 113.708 %, Maximum response 100 %, Minimum measured 27.128 %, P-gp concentration 2 uM, R squared 0.834, P-gp inhibitor Elacidar): > 10 µM; EC90 (dengue virus type 2 [7]; Dengue virus, VeroE6/TMPRSS2): > 10 µM; EC50 (dengue virus type 2 [7]; veroe6/tmprss2): 8.6 µM and 2.59 µM
